Data published in US8242128B2, “1,3-benzoxazolyl derivatives as kinase inhibitors” (Merck Patent GmbH, priority 2003, dated 2012).
pIC50: −log10 of the molar value.

Assays:
TIE-2 = TIE-2 (Homo sapiens, UniProt Q02763); assay: Inhibition of TIE-2 (flashplate kinase assay, poly(Glu, Tyr) phosphorylation, 33P-ATP); format: biochemical
Method: The TIE-2 tests can be carried out, for example, analogously to the methods indicated in WO 02/44156.
The assay determines the inhibiting activity of the substances to be tested in the phosphorylation of the substrate poly(Glu, Tyr) by Tie-2 kinase in the presence of radioactive ^33P-ATP. The phosphorylated substrate binds to the surface of a “flashplate” microtitre plate during the incubation time. After removal of the reaction mixture, the microtitre plate is washed a number of times and the radioactivity on its surface is subsequently measured. An inhibiting effect of the substances to be measured results in lower radioactivity compared with an undisturbed enzymatic reaction.

RAF = assay: Inhibition of RAF; format: biochemical

Chain of TIE-2 (Q02763 23-1124, species assumed): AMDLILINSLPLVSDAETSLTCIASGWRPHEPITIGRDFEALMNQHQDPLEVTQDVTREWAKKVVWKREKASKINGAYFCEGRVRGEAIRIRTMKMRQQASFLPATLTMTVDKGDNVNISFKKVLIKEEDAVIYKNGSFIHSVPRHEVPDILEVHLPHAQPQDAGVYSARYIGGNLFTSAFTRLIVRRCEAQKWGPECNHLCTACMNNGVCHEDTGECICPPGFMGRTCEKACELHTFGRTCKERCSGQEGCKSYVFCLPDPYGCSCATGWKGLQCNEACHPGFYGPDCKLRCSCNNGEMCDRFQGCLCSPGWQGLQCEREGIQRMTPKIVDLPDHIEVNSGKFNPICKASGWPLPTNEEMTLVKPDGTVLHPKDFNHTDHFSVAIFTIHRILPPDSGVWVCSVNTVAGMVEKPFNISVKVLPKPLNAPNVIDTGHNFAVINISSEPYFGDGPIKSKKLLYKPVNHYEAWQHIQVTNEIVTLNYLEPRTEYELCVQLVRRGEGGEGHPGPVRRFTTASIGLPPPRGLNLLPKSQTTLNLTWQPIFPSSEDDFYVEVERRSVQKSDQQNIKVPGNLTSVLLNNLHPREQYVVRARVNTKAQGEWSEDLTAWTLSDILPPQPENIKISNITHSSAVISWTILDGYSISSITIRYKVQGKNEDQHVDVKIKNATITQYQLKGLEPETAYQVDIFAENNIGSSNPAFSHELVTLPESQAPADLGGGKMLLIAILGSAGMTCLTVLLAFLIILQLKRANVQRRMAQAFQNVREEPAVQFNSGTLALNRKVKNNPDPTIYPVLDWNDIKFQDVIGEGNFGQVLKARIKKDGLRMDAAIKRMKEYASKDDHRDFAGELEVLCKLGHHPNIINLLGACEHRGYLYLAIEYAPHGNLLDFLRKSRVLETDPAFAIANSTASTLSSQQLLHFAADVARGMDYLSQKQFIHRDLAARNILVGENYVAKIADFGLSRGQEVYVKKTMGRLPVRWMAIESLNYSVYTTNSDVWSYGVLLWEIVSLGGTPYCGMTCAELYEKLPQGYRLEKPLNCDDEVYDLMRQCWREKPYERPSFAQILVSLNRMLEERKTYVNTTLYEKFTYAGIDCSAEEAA

pIC50 (TIE-2): 6.51
pIC50 (RAF): < 6.00
Structure (SMILES): O=[N+]([O-])c1cc(Cl)cc2nc(Nc3ccc(Sc4ccncc4)cc3)oc12 [(5-Chloro-7-nitrobenzoxazol-2-yl)-[4-(pyridin-4-ylsulfanyl)phenyl]amine]
